Measured values from ChEMBL document CHEMBL2157932, “Synthesis and pharmacological evaluation of carbamic acid 1-phenyl-3-(4-phenyl-piperazine-1-yl)-propyl ester derivatives as new analgesic agents” (Bioorg Med Chem Lett, 2012).
The source made the active and inactive calls. The rule behind the calls is not given here.

Tests used:
[1] = test system: Mus musculus; assay: Analgesic activity in mouse assessed as inhibition of acetic acid-induced writhing response at 10 mg/kg, po administered 0.5 to 1 hr before acetic acid challenge; format: functional
[2] = test system: Rattus norvegicus; assay: Antiinflammatory activity in rat persistent inflammatory pain model assessed as inhibition of carrageenan-induced mechanical hyperalgesia at 100 mg/kg, po; format: functional
[3] = test system: Mus musculus; assay: Antinociceptive activity in late phase po dosed mouse by formalin test; format: functional
[4] = test system: Mus musculus; assay: Antinociceptive activity in late phase ip dosed mouse by formalin test; format: functional
[5] = test system: Mus musculus; assay: Antinociceptive activity in mouse up to 100 mg/kg, ip by hot plate test; format: functional, organism-based; design: dose 100 mg/kg
[6] = Neurotoxicity in ip dosed mouse by rotarod test; format: toxicity, organism-based; conditions: in vivo
[7] = Neurotoxicity in po dosed mouse by rotarod test; format: toxicity, organism-based; conditions: in vivo
[8] = test system: Mus musculus; assay: Analgesic activity in ip dosed mouse assessed as inhibition of acetic acid-induced writhing response administered 0.5 to 1 hr before acetic acid challenge; format: functional
[9] = Half life in human liver microsomes by LC/MS/MS; format: ADME, Microsome
[10] = test system: Mus musculus; assay: Analgesic activity in mouse assessed as inhibition of acetic acid-induced writhing response at 10 mg/kg, ip administered 0.5 to 1 hr before acetic acid challenge; format: functional; conditions: route intraperitoneal
[11] = target: 5-hydroxytryptamine receptor 2A (Rattus norvegicus) (UniProt P14842); assay: Displacement of [3H]-ketanserin from 5HT2A receptor in rat cortical membrane at 1 uM; format: cell membranes
Chain of 5-hydroxytryptamine receptor 2A (Rattus norvegicus) (P14842 whole entry): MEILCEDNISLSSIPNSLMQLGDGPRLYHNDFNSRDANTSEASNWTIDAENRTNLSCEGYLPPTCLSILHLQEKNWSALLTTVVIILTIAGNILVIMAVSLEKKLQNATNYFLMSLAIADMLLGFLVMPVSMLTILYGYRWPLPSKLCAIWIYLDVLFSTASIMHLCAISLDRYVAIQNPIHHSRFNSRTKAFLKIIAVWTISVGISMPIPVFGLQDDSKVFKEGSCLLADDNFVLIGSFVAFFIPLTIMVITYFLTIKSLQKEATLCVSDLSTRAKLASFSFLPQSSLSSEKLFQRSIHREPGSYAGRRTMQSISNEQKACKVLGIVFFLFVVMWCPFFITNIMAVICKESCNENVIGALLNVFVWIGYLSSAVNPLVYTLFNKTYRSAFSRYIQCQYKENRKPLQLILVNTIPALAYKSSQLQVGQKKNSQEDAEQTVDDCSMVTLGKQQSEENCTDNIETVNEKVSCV

[12] = target: T1, 5-hydroxytryptamine receptor 1A (Rattus norvegicus) (UniProt P19327); assay: Displacement of [3H]-8-OH-DPAT from 5HT1A receptor in rat hippocampus at 1 uM; format: tissue-based
T1 sequence (whole entry): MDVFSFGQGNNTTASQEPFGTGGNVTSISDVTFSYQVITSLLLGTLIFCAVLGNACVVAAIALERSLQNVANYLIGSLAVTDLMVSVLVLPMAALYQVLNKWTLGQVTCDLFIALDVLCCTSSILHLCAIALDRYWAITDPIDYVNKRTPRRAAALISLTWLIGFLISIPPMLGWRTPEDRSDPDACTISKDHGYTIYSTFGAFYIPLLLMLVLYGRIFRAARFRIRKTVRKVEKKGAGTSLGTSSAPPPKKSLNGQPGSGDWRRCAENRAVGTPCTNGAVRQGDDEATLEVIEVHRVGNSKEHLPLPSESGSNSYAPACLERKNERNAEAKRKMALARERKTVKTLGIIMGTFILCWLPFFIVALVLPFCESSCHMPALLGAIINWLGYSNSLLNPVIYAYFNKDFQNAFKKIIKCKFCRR

[13] = target: T2, 5-hydroxytryptamine receptor 1A (Rattus norvegicus, UniProt P19327); assay: Displacement of [3H]-8-OH-DPAT from 5HT1A receptor in rat hippocampus; format: tissue-based
T2 sequence (P19327 whole entry): T1 sequence (whole entry)

[14] = target: 5-hydroxytryptamine receptor 2A (Rattus norvegicus, UniProt P14842); assay: Displacement of [3H]-ketanserin from 5HT2A receptor in rat cortical membrane; format: cell membranes
Chain of 5-hydroxytryptamine receptor 2A (P14842 whole entry): as the sequence (P14842 whole entry) above

[15] = test system: Mus musculus; assay: Neurotoxicity in mouse at 30 mg/kg, ip by rotarod test; format: toxicity, organism-based; design: dose 30 mg/kg, route intraperitoneal; conditions: in vivo
[16] = test system: Mus musculus; assay: Neurotoxicity in mouse at 60 mg/kg, ip by rotarod test; format: toxicity, organism-based; design: dose 60 mg/kg, route intraperitoneal; conditions: in vivo
[17] = test system: Mus musculus; assay: Analgesic activity in po dosed mouse assessed as inhibition of acetic acid-induced writhing response administered 0.5 to 1 hr before acetic acid challenge; format: functional
[18] = test system: Mus musculus; assay: Neurotoxicity in mouse at 100 mg/kg, ip by rotarod test; format: toxicity, organism-based; design: dose 100 mg/kg, route intraperitoneal; conditions: in vivo

COc1ccc(N2CCN(CCC(OC(N)=O)c3ccc(C)c(C)c3)CC2)cc1 (single isomer, unassigned)
inhibition in vivo at 10 mg/kg [1]: 58%

O=C(c1ccccc1)c1ccc2n1CCC2C(=O)O (stereo not given) [KETOROLAC]
inhibition in vivo at 100 mg/kg [2]: 36.4% | ED50 [3]: 17.9 mg/kg | ED50 [4]: 12.9 mg/kg | Activity [5]: inactive

COc1ccc(N2CCN(CCC(OC(N)=O)c3ccc(Cl)cc3)CC2)cc1 (single isomer, unassigned)
inhibition in vivo at 10 mg/kg [1]: 51%

NC(=O)OC(CCN1CCN(c2ccccc2)CC1)c1ccccc1 (racemic)
TD50 [6]: 52.3 mg/kg | TD50 [7]: 124 mg/kg | ED50 [8]: 0.49 mg/kg | half-life [9]: 19 min

NC(=O)OC(CCN1CCN(c2ccc(Cl)cc2)CC1)c1ccccc1 (single isomer, unassigned)
inhibition in vivo at 10 mg/kg [10]: 52%

Cc1ccc(C(CCN2CCN(c3ccccc3)CC2)OC(N)=O)cc1 (single isomer, unassigned)
inhibition [11]: 85.6% | inhibition [12]: 59.6% | inhibition in vivo at 10 mg/kg [10]: 100%

COc1ccc(N2CCN(CCC(OC(N)=O)c3ccccc3)CC2)cc1 (racemic)
TD50 [7]: 122 mg/kg | IC50 [13]: 1980 nM | ED50 [8]: 0.14 mg/kg | half-life [9]: 124 min | inhibition in vivo at 10 mg/kg [1]: 72%

NC(=O)OC(CCN1CCN(c2ccccc2Cl)CC1)c1ccccc1 (single isomer, unassigned)
IC50 [13]: 52500 nM | IC50 [14]: > 100000 nM

COc1ccccc1N1CCN(CCC(OC(N)=O)c2ccccc2)CC1 (single isomer, unassigned)
Activity [15]: Toxic | ED50 [8]: 0.67 mg/kg

NC(=O)OC(CCN1CCN(c2ccc(C(F)(F)F)cc2[N+](=O)[O-])CC1)c1ccccc1 (single isomer, unassigned)
inhibition in vivo at 10 mg/kg [1]: 50%

NC(=O)OC(CCN1CCN(c2cccc(Cl)c2)CC1)c1ccccc1 (stereo not given)
Activity [16]: Toxic | ED50 [8]: 0.57 mg/kg

COc1ccc(N2CCN(CCC(OC(N)=O)c3ccccc3)CC2)c(OC)c1 (single isomer, unassigned)
inhibition in vivo at 10 mg/kg [1]: 19%

NC(=O)OC(CCN1CCN(c2ccccc2)CC1)c1ccc(Cl)cc1 (single isomer, unassigned)
inhibition [11]: 84.6% | inhibition [12]: 64.6% | ED50 [17]: 2.1 mg/kg | half-life [9]: 15 min

Cc1cccc(N2CCN(CCC(OC(N)=O)c3ccccc3)CC2)c1 (single isomer, unassigned)
IC50 [13]: 59.6 nM | IC50 [14]: 92.5 nM

NC(=O)O[C@@H](CCN1CCN(c2ccccc2)CC1)c1ccccc1
IC50 [13]: 772 nM | IC50 [14]: 1020 nM | inhibition in vivo at 10 mg/kg [10]: 87.8%

COc1ccc(N2CCN(CCC(OC(N)=O)c3ccc(C)cc3C)CC2)cc1 (single isomer, unassigned)
inhibition in vivo at 10 mg/kg [1]: 62%

COc1cccc(N2CCN(CCC(OC(N)=O)c3ccccc3)CC2)c1 (single isomer, unassigned)
inhibition in vivo at 10 mg/kg [10]: 55%

NC(=O)OC(CCN1CCN(c2ccc([N+](=O)[O-])cc2)CC1)c1ccc(F)cc1 (single isomer, unassigned)
TD50 [7]: 97.8 mg/kg | inhibition [11]: 29.6% | inhibition [12]: 29.6% | inhibition in vivo at 10 mg/kg [1]: 70%

NC(=O)OC(CCN1CCN(c2ccccc2)CC1)c1cccc(Cl)c1 (single isomer, unassigned)
inhibition [11]: 93.7% | inhibition [12]: 76.4% | inhibition in vivo at 10 mg/kg [10]: 100% | inhibition in vivo at 10 mg/kg [1]: 59%

O[C@@H](CCN1CCN(c2ccccc2)CC1)c1ccccc1
IC50 [13]: 495 nM | IC50 [14]: 289 nM | inhibition in vivo at 10 mg/kg [10]: 66.7%

COc1ccc(N2CCN(CCC(OC(N)=O)c3ccc(Cl)c(Cl)c3)CC2)cc1 (single isomer, unassigned)
inhibition in vivo at 10 mg/kg [1]: 61%

CC(C)(C)c1ccc(C(CCN2CCN(c3ccccc3)CC2)OC(N)=O)cc1 (single isomer, unassigned)
inhibition [11]: 98.8% | inhibition [12]: 44.4% | inhibition in vivo at 10 mg/kg [1]: 62%

NC(=O)OC(CCN1CCN(c2cccc(C(F)(F)F)c2)CC1)c1ccccc1 (stereo not given)
Activity [18]: Toxic | inhibition in vivo at 10 mg/kg [10]: 14.6%
